Reference: article PMC12040169 (PLOS Biology, 2025)

Test: in vitro
Conditions: human, hela cells, % viability

| SMILES | viability at 28.5 h, 10 µM [%] |
| --- | --- |
| c1ccc(C(Oc2nccnc2-c2ccc3c(c2)OCO3)c2ccccc2)cc1 [CBK106707] | 103 |
| CC(=O)c1ccc(O)c2ncccc12 [CBK015821] | 110 |
| CN1CCC(NC(=O)c2cc3ccccc3[nH]2)CC1 [CBK168633] | 88.3 |
| Nc1nonc1C(=O)NCCNS(=O)(=O)c1ccc(F)cc1 [CBK265980] | 88.1 |
| Cc1cc(C)n(-c2nc(NC(C)(C)C)nc(N3CCOCC3)n2)n1 [CBK269810] | 85.5 |
| CC(C)(C)OC(=O)N1CCN(c2ccnc(Cl)n2)CC1 [CBK002095] | 120 |
| CNC(=O)CSc1nc2ccccc2nc1NC(C)C [CBK107171] | 99.7 |
| NCCNC(=O)c1ccc(-c2cccc(C(F)(F)F)c2)o1 [CBK115927C] | 104 |
| COc1ccc2cc(CN(CCNC(=O)OC(C)(C)C)C(=O)NC3CCCCC3)c(=O)[nH]c2c1 [CBK132074] | 101 |
| O=c1nc(C(F)(F)F)n2ccccc2n1 [CBK027683] | 97.2 |
| CNC(=O)C1(Cc2cccc(-c3cccs3)c2)CCN(C(=O)CCc2ccccc2)CC1 [CBK285913] | 90.4 |
| Cc1ccc(S(=O)(=O)NC(CC(=O)Nc2ccc(Br)cc2)c2ccccc2)cc1 (stereo not shown) [CBK265110] | 93.3 |
| COc1cccc(C(=O)NC(c2ccc([N+](=O)[O-])cc2)c2c(O)ccc3ccccc23)c1 (stereo not shown) [CBK263971] | 84.2 |
| Cc1cc(N(C)CCOc2ccccc2F)nc(N)n1 [CBK305969] | 79.6 |
| NC(=O)c1ccccc1-c1cnc(N)c(-c2ccc(O)cc2)n1 [CBK115536] | 89.4 |
| Cc1cc(C)c(NC(=O)CSCc2cc(O)[nH]n2)c(Cl)c1 [CBK268302] | 93.8 |
| Cn1c(/N=N/c2c(-c3ccccc3)n(C)c3ccccc23)nc2ccccc21 [CBK262114] | 81.2 |
| Cc1ccc(S(=O)(=O)NCCCN2CCOCC2)c(C)c1C [CBK264990] | 89.7 |
| COc1ccc(C2Nc3ccccc3C(=O)N2Cc2ccccc2)cc1COc1ccc([N+](=O)[O-])cc1 (stereo not shown) [CBK033690] | 86.9 |
| C[Si]1(C)O[Si](C)(C)O[Si](C)(CC[Si](C)(C)c2ccccc2)O[Si](C)(C)O1 [CBK260998] | 97 |
| O=C1CC(c2ccc(F)cc2)CC(=O)C1=CNCCN1CCN(C(=S)Nc2ccccc2)CC1 (stereo not shown) [CBK264784] | 94.1 |

| SMILES | viability at 28.5 h, 10 µM [%] |
| --- | --- |
| O=C(NCCc1c[nH]cn1)NC12CC3CC(CC(C3)C1)C2 [CBK269880] | 86.2 |
| O=C(c1ccc[nH]1)N1Cc2ccccc2C1 [CBK200319] | 89.4 |
| CSc1nc(NC(=O)c2ccoc2)cc(N2CCNCC2)n1 [CBK050314T] | 88.9 |
| O=C1NC2(CCN(C(=O)c3ccco3)CC2)Nc2ccccc21 [CBK284762] | 104 |
| OCCCNc1nccnc1-c1ccc(F)cc1 [CBK037348] | 109 |
| FC(F)Oc1ccc(-c2ccnc(S)n2)cc1 [CBK288385] | 91.9 |
| Cc1cc(=O)[nH]c(SCc2nc3ccccn3c2Br)n1 [CBK296063] | 121 |
| Clc1ccc(SCCOCCN2CCCCC2)cc1 [CBK265108G] | 87.3 |
| Cn1cc(C(CC(=O)O)C(=O)O)c2ccccc21 (stereo not shown) [CBK266231] | 98.9 |
| Cc1nn2c(O)c(CCO)c(C(=O)O)nc2c1-c1ccc(Cl)cc1 [CBK286699] | 108 |
| C=CCn1c(SCC(=O)Nc2ccccn2)nnc1-c1ccc(Br)cc1 [CBK022413] | 96.3 |
| COc1ccc([C@]23CC[C@H](NC(=O)Nc4ccc(F)cc4F)C[C@H]2N(C)CC3)cc1OC [CBK066917T] | 90.6 |
| Cc1nccn1-c1ccc(NC(=O)c2ccn(C(F)F)n2)cc1 [CBK281410] | 110 |
| O=C(O)COc1ccc(NC(=O)c2ccc3c(c2)C(=O)N(CC2CCCO2)C3=O)cc1 (stereo not shown) [CBK263719] | 92.5 |
| O=C(CCSc1ccccc1)Nc1ccccc1C(=O)N1CCCCC1 [CBK269545] | 87.3 |
| COc1ccccc1NC(=O)c1c(NC(=O)c2cc([N+](=O)[O-])ccc2Cl)sc2c1CCCC2 [CBK263827] | 88.7 |
| COc1cccc(C2C(C(=O)c3ccc(Br)cc3)=C(O)C(=O)N2CCN2CCOCC2)c1OC (stereo not shown) [CBK264855] | 110 |
| Cc1ccc(S(=O)(=O)n2nncc2C)cc1 [CBK001921] | 111 |
| Cc1nn2c(=O)cc(C(=O)O)[nH]c2c1-c1ccccc1 [CBK287129] | 88.2 |
| O=C1CSC2(C(=O)Nc3ccc(Br)cc32)N1c1cccc([N+](=O)[O-])c1 (stereo not shown) [CBK093451] | 94.3 |
| CCOCCNS(=O)(=O)c1ccc(C(C)(C)CC)cc1 [CBK044655] | 98.2 |

| SMILES | viability at 28.5 h, 10 µM [%] |
| --- | --- |
| O=C(Cn1c(NCCO)nc2ccccc21)c1ccco1 [CBK264127B] | 96.3 |
| Cc1ccc(-n2c(SCC(=O)N3CCc4ccccc43)nnc2-c2ccccc2O)c(C)c1 [CBK268793] | 108 |
| CC(=O)Nc1nc(-c2ccccc2C)ccc1C(=O)N(C)C [CBK106328] | 94.6 |
| Cc1ccc(CS(=O)(=O)N2CCC3(CC2)CNC(=O)C3)cc1 [CBK283344] | 88.5 |
| CCC(C)NCc1cccc(Oc2ncccn2)c1 (stereo not shown) [CBK288090] | 106 |
| N=C(N)NCCc1c[nH]c2ccccc12 [CBK024011G] | 107 |
| COc1ccc(CN2CC[C@H]3[C@@H](C2)[C@H](c2ccsc2)CN3C(=O)c2ccccc2)cc1 [CBK285614] | 97.6 |
| CCn1cc(C(=O)N2CCC(Oc3ccccc3C)(C(=O)O)CC2)cn1 [CBK306699] | 118 |
| COc1ccc(C2C(C(=O)O)c3ccccc3C(=O)N2C)cc1 (stereo not shown) [CBK286847] | 85.8 |
| O=C(NCc1ccccn1)c1ccccc1Nc1cccc(C(F)(F)F)c1 [CBK107252] | 86.3 |
| COc1ccc2nc(NC(=N)NC(=S)Nc3ccc(Cl)cc3)nc(C)c2c1 [CBK266677] | 88.3 |
| Cc1c(NC(=O)c2ccc3c(c2)C(=O)N(Cc2ccco2)C3=O)cccc1C(=O)O [CBK268627] | 92.9 |
| CCNC(=O)N1CC2(CCN(CCOCC)CC2)c2ccccc21 [CBK136972] | 90.5 |
| C=CCNC(=O)C1(Cc2ccccc2-c2cccnc2)CCOCC1 [CBK285217] | 109 |
| COc1ccc(CC(=O)Nc2ccc3n(c2=O)C[C@H]2C[C@@H]3CN(C(C)=O)C2)cc1 [CBK289203] | 99.1 |
| O=C(CCN1CCCCC1)Nc1ccc2c(=O)n3c(nc2c1)/C(=C/c1ccccc1)CC3 [CBK017786] | 94.1 |
| Cc1cc(OC(C)C(=O)Nc2ncccc2C)ccc1Cl (stereo not shown) [CBK269637] | 78.4 |
| Cn1cnnc1CNC(=O)N1CCN(Cc2cccs2)CC1 [CBK305045] | 86.3 |
| CCN1CCN(C(=O)C2CC=CCC2C(=O)O)CC1 (stereo not shown) [CBK270295] | 91.6 |
| Cn1ncnc1CNc1ccc(S(=O)(=O)N2CCCCCC2)cc1 [CBK305278] | 90.1 |
| Cc1ccccc1NC1=NC(=O)C(CC(C)C)O1 (stereo not shown) [CBK074902] | 116 |

Same assay, conditions: human, hela cells, % viability, bulk resorufin, single well

| SMILES | viability at 28.5 h, 10 µM [%] |
| --- | --- |
| CC(=O)N1CCC(C(=O)Nc2cccc(-c3ccc4c(c3)COC3(CCNCC3)O4)c2)CC1 [CBK093674] | 91.4 |
